Measured values as given in patent US20260102340A1, “Therapeutic Formulation” (1000739373 Ontario Ltd., priority 2022, published 2026).
“And” between values parts separate entries of the source, which are not always exact repeats. Identical values can stand only once.

Experiments:
Type in all cases: physicochemical
[1] = Melatonin drug residual (total can content) after storage at 40° C. and 75% relative humidity; conditions: for Initial Melatonin t = 0 (can content) / Initial Melatonin t = 0, mean: 100 μg/50 μL
Protocol: Drug residual measurements (total can content) was determined following storage at 40° C. and 75% relative humidity.
Each canister type was packaged with metering valve 1908 (Aptar™, 50 μl) (MDI batches OZ211003/RJ/A and OZ211003/RJ/C) and metering valves 1904 (Bespak™ 50 μl, with dip tube 1906) (MDI batches OZ211003/RJ/B and OZ211003/RJ/D).

[2] = Quantitative solubility of melatonin in ethanol/HFA 152a (filtered supersaturated solutions, HPLC)
Protocol: Data was obtained at 5° C. (see FIG. 15 and FIG. 16) and T=20° C. (see FIG. 17 and FIG. 18) and presented as % w/w, μg/50 μl and μg/63 μl (see also Table 4).

[3] = Visual solubility of formulations packaged in glass bottles; conditions: for Visual appearance in glass bottles: 5° C.
[4] = 6% w/w ethanol, HFA 152a, Plain Aluminum 14 ml canister, Metering Valve 1904 (with dip tube 1906)
[5] = 6% w/w ethanol, HFA 152a, Plain Aluminum 14 ml canister, Metering Valve 1908
[6] = 6% w/w ethanol, HFA 152a, Plasma Coated 14 ml canister, Metering Valve 1904 (with dip tube 1906)
[7] = 6% w/w ethanol, HFA 152a, Plasma coated 14 ml canister, Metering Valve 1908
[8] = Plain Aluminum canister, Metering Valve 1904 (with dip tube 1906), t = 1 month @ 40° C./75% RH, stored Inverted
[9] = Plain Aluminum canister, Metering Valve 1904 (with dip tube 1906), t = 1 month @ 40° C./75% RH, stored Upright
[10] = Plain Aluminum canister, Metering Valve 1904 (with dip tube 1906), t = 3 month @ 40° C./75% RH, stored Inverted (valve down)
[11] = Plain Aluminum canister, Metering Valve 1904 (with dip tube 1906), t = 3 month @ 40° C./75% RH, stored Upright (valve up)
[12] = Plain Aluminum canister, Metering Valve 1908, t = 1 month @ 40° C./75% RH, stored Inverted
[13] = Plain Aluminum canister, Metering Valve 1908, t = 1 month @ 40° C./75% RH, stored Upright
[14] = Plain Aluminum canister, Metering Valve 1908, t = 3 month @ 40° C./75% RH, stored Inverted (valve down)
[15] = Plain Aluminum canister, Metering Valve 1908, t = 3 month @ 40° C./75% RH, stored Upright (valve up)
[16] = Plasma Coated canister, Metering Valve 1904 (with dip tube 1906), t = 1 month @ 40° C./75% RH, stored Inverted
[17] = Plasma Coated canister, Metering Valve 1904 (with dip tube 1906), t = 1 month @ 40° C./75% RH, stored Upright
[18] = Plasma Coated canister, Metering Valve 1904 (with dip tube 1906), t = 3 month @ 40° C./75% RH, stored Inverted (valve down)
[19] = Plasma Coated canister, Metering Valve 1904 (with dip tube 1906), t = 3 month @ 40° C./75% RH, stored Upright (valve up)
[20] = Plasma coated canister, Metering Valve 1908, t = 1 month @ 40° C./75% RH, stored Inverted
[21] = Plasma coated canister, Metering Valve 1908, t = 1 month @ 40° C./75% RH, stored Upright
[22] = Plasma coated canister, Metering Valve 1908, t = 3 month @ 40° C./75% RH, stored Inverted (valve down)
[23] = Plasma coated canister, Metering Valve 1908, t = 3 month @ 40° C./75% RH, stored Upright (valve up)

COc1ccc2[nH]cc(CCNC(C)=O)c2c1 [Melatonin]
Initial Melatonin t = 0 (can content) [1, 4]: 15408 µg and 15450 µg and 15897 µg | Initial Melatonin t = 0, mean [1, 4]: 15.6 mg | Initial Melatonin t = 0 (can content) [1, 5]: 16200 µg and 15676 µg and 15379 µg | Initial Melatonin t = 0, mean [1, 5]: 15.8 mg | Initial Melatonin t = 0 (can content) [1, 6]: 15417 µg and 15682 µg and 15292 µg | Initial Melatonin t = 0, mean [1, 6]: 15.5 mg | Initial Melatonin t = 0 (can content) [1, 7]: 15430 µg and 15517 µg and 15810 µg | Initial Melatonin t = 0, mean [1, 7]: 15.6 mg | Residual melatonin at 3-month ([1]; MDIs stored valve down): 93% to 96 | Residual Melatonin [1, 8]: 15162 µg and 14967 µg | Residual Melatonin % of t = 0 [1, 8]: 97 % of t = 0 | Residual Melatonin [1, 9]: 14959 µg and 15331 µg | Residual Melatonin % of t = 0 [1, 9]: 97 % of t = 0 | Residual Melatonin [1, 10]: 14652 µg and 14318 µg | Residual Melatonin % of t = 0 [1, 10]: 93 % of t = 0 | Residual Melatonin [1, 11]: 14721 µg and 14847 µg | Residual Melatonin % of t = 0 [1, 11]: 98 % of t = 0 | Residual Melatonin [1, 12]: 15171 µg and 15131 µg | Residual Melatonin % of t = 0 [1, 12]: 98 % of t = 0 | Residual Melatonin [1, 13]: 15403 µg and 15581 µg | Residual Melatonin % of t = 0 [1, 13]: 100 % of t = 0 | Residual Melatonin [1, 14]: 14920 µg and 14914 µg | Residual Melatonin % of t = 0 [1, 14]: 96 % of t = 0 | Residual Melatonin [1, 15]: 15600 µg and 15422 µg | Residual Melatonin % of t = 0 [1, 15]: 100 % of t = 0 | Residual Melatonin [1, 16]: 14872 µg and 14984 µg | Residual Melatonin % of t = 0 [1, 16]: 97 % of t = 0 | Residual Melatonin [1, 17]: 14944 µg and 15211 µg | Residual Melatonin % of t = 0 [1, 17]: 98 % of t = 0 | Residual Melatonin [1, 18]: 14634 µg and 14510 µg | Residual Melatonin % of t = 0 [1, 18]: 94 % of t = 0 | Residual Melatonin [1, 19]: 14805 µg and 14789 µg | Residual Melatonin % of t = 0 [1, 19]: 98 % of t = 0 | Residual Melatonin [1, 20]: 15024 µg and 14980 µg | Residual Melatonin % of t = 0 [1, 20]: 96 % of t = 0 | Residual Melatonin [1, 21]: 15578 µg and 15444 µg | Residual Melatonin % of t = 0 [1, 21]: 100 % of t = 0 | Residual Melatonin [1, 22]: 14661 µg and 14791 µg | Residual Melatonin % of t = 0 [1, 22]: 94 % of t = 0 | Residual Melatonin [1, 23]: 15461 µg and 15469 µg | Residual Melatonin % of t = 0 [1, 23]: 100 % of t = 0 | Residual melatonin at 1-month ([1]; all packaging and storage conditions, 40° C./75% RH): 96-98% | Residual melatonin at 3-month ([1]; stored valve up, both canister types, metering valve 1904 (Bespak with dip tube 1906)): 98% | Residual melatonin at 3-month ([1]; stored valve up, both canister types, metering valve 1908 (Aptar)): 100% | Initial time point residual, % of the target formulation ([1]; t = 0, 100 μg/50 μl, 6% w/w ethanol, HFA 152a): 97.5±1.7% | *Melatonin μg per 56 mg (63 μl) ([2]; 0% w/w ethanol, T = 5° C.): 8 μg per 56 mg (63 μl) | Melatonin %(w/w) in filtered supersaturated HFA152a solution ([2]; 0% w/w ethanol, T = 5° C.): 0.01 %(w/w) | Melatonin μg per 44 mg (50 μl) ([2]; 0% w/w ethanol, T = 5° C.): 6 μg per 44 mg (50 μl) | *Melatonin μg per 56 mg (63 μl) ([2]; 0% w/w ethanol, T = 20° C.): 9 μg per 56 mg (63 μl) | Melatonin %(w/w) in filtered supersaturated HFA152a solution ([2]; 0% w/w ethanol, T = 20° C.): 0.02 %(w/w) | Melatonin μg per 44 mg (50 μl) ([2]; 0% w/w ethanol, T = 20° C.): 7 μg per 44 mg (50 μl) | *Melatonin μg per 56 mg (63 μl) ([2]; 5% w/w ethanol, T = 5° C.): 121 μg per 56 mg (63 μl) | Melatonin %(w/w) in filtered supersaturated HFA152a solution ([2]; 5% w/w ethanol, T = 5° C.): 0.22 %(w/w) | Melatonin μg per 44 mg (50 μl) ([2]; 5% w/w ethanol, T = 5° C.): 95 μg per 44 mg (50 μl) | *Melatonin μg per 56 mg (63 μl) ([2]; 5% w/w ethanol, T = 20° C.): 159 μg per 56 mg (63 μl) | Melatonin %(w/w) in filtered supersaturated HFA152a solution ([2]; 5% w/w ethanol, T = 20° C.): 0.28 %(w/w) | Melatonin μg per 44 mg (50 μl) ([2]; 5% w/w ethanol, T = 20° C.): 125 μg per 44 mg (50 μl) | *Melatonin μg per 56 mg (63 μl) ([2]; 8% w/w ethanol, T = 5° C.): 270 μg per 56 mg (63 μl) | Melatonin %(w/w) in filtered supersaturated HFA152a solution ([2]; 8% w/w ethanol, T = 5° C.): 0.48 %(w/w) | Melatonin μg per 44 mg (50 μl) ([2]; 8% w/w ethanol, T = 5° C.): 212 μg per 44 mg (50 μl) | *Melatonin μg per 56 mg (63 μl) ([2]; 8% w/w ethanol, T = 20° C.): 395 μg per 56 mg (63 μl) | Melatonin %(w/w) in filtered supersaturated HFA152a solution ([2]; 8% w/w ethanol, T = 20° C.): 0.70 %(w/w) | Melatonin μg per 44 mg (50 μl) ([2]; 8% w/w ethanol, T = 20° C.): 310 μg per 44 mg (50 μl) | *Melatonin μg per 56 mg (63 μl) ([2]; 10% w/w ethanol, T = 5° C.): 339 μg per 56 mg (63 μl) | Melatonin %(w/w) in filtered supersaturated HFA152a solution ([2]; 10% w/w ethanol, T = 5° C.): 0.60 %(w/w) | Melatonin μg per 44 mg (50 μl) ([2]; 10% w/w ethanol, T = 5° C.): 266 μg per 44 mg (50 μl) | *Melatonin μg per 56 mg (63 μl) ([2]; 10% w/w ethanol, T = 20° C.): 456 μg per 56 mg (63 μl) | Melatonin %(w/w) in filtered supersaturated HFA152a solution ([2]; 10% w/w ethanol, T = 20° C.): 0.82 %(w/w) | Melatonin μg per 44 mg (50 μl) ([2]; 10% w/w ethanol, T = 20° C.): 359 μg per 44 mg (50 μl) | *Melatonin μg per 56 mg (63 μl) ([2]; 15% w/w ethanol, T = 5° C.): 588 μg per 56 mg (63 μl) | Melatonin %(w/w) in filtered supersaturated HFA152a solution ([2]; 15% w/w ethanol, T = 5° C.): 1.05 %(w/w) | Melatonin μg per 44 mg (50 μl) ([2]; 15% w/w ethanol, T = 5° C.): 462 μg per 44 mg (50 μl) | *Melatonin μg per 56 mg (63 μl) ([2]; 15% w/w ethanol, T = 20° C.): 817 μg per 56 mg (63 μl) | Melatonin %(w/w) in filtered supersaturated HFA152a solution ([2]; 15% w/w ethanol, T = 20° C.): 1.46 %(w/w) | Melatonin μg per 44 mg (50 μl) ([2]; 15% w/w ethanol, T = 20° C.): 642 μg per 44 mg (50 μl) | Visual solubility ([3]; 50 μg/50 μl in 5% ethanol and HFA 134a, T=5° C. and T=20° C.): confirmed visually | Visual solubility ([3]; 100 μg/50 μl (5% w/w ethanol), HFA 152a, 4° C. and 20° C.): soluble | Visual solubility in glass bottles ([3]; 100 μg/50 μl in 12% w/w ethanol and HFA 134a, T=5° C. and T=20° C.): confirmed visually | Visual appearance in glass bottles ([3]; 100 μg/50 μl, 6% w/w ethanol in HFA 152a): clear solutions | Visual appearance in glass bottles ([3]; 200 μg/50 μl, 8% w/w ethanol in HFA 152a): clear solutions | Visual solubility ([3]; 500 μg/50 μl (15% w/w ethanol), HFA 152a, 4° C. and 20° C.): soluble
